The values below come from PubChem BioAssay AID1259407 (Chemical Carcinogenesis Research Information System (CCRIS), 2018).

The data set relates to CCRIS mutagenicity, Ames/micronucleus/aberration tests. As to the kind of experiment: CCRIS mutagenicity studies.
The mark [1] stands for this setting: Test System: AMES SALMONELLA TYPHIMURIUM, Strain/Indicator: TA100, Metabolic Activation: NONE, Method: STANDARD PLATE.

Calls of active or inactive are those of the source. The rule behind the calls is not given here.

As for `Fc1ccc2c3c(cccc13)-c1c-2ccc2ccccc12`, the mutagenic call is “active; positive” (Test System: AMES SALMONELLA TYPHIMURIUM, Strain/Indicator: TA97A, Metabolic Activation: RAT, LIVER, S-9, AROCLOR 1254, Method: PREINCUBATION); “active; positive” (Test System: AMES SALMONELLA TYPHIMURIUM, Strain/Indicator: TA98, Metabolic Activation: RAT, LIVER, S-9, AROCLOR 1254, Method: PREINCUBATION); “active; positive” (Test System: AMES SALMONELLA TYPHIMURIUM, Strain/Indicator: TA100, Metabolic Activation: RAT, LIVER, S-9, AROCLOR 1254, Method: PREINCUBATION).
Turning to `FC(F)Cl`, the mutagenic call is “inactive; negative” (End Point: IN VITRO CHROMOSOMAL ABERRATIONS, Test System: CHL CELLS, Metabolic Activation: NONE); “inactive; negative” (End Point: IN VITRO CHROMOSOMAL ABERRATIONS, Test System: CHL CELLS, Metabolic Activation: RAT, LIVER, S-9, SODIUM PHENOBARBITAL AND 5,6-BENZOFLAVONE); “inactive; negative” (Test System: AMES SALMONELLA TYPHIMURIUM, Strain/Indicator: TA98, Metabolic Activation: NONE, Method: GAS EXPOSURE); “inactive; negative” (Test System: AMES SALMONELLA TYPHIMURIUM, Strain/Indicator: TA98, Metabolic Activation: RAT LIVER S-9, PHENOBARBITAL AND BETA-NAPHTHOFLAVONE (40%), Method: GAS EXPOSURE); “inactive; negative” (Test System: AMES SALMONELLA TYPHIMURIUM, Strain/Indicator: TA98, Metabolic Activation: RAT, LIVER, S-9, PHENOBARBITAL AND 5,6-BENZOFLAVONE, Method: GAS EXPOSURE); “active; positive” (Test System: AMES SALMONELLA TYPHIMURIUM, Strain/Indicator: TA100, Metabolic Activation: RAT LIVER S-9, PHENOBARBITAL AND BETA-NAPHTHOFLAVONE (40%), Method: GAS EXPOSURE). Further, the mutagenic call is, setting by setting: (Test System: AMES SALMONELLA TYPHIMURIUM, Strain/Indicator: TA100, Metabolic Activation: RAT, LIVER, S-9, PHENOBARBITAL AND 5,6-BENZOFLAVONE, Method: GAS EXPOSURE) “active; positive”; (Test System: AMES SALMONELLA TYPHIMURIUM, Strain/Indicator: TA1535, Metabolic Activation: NONE, Method: GAS EXPOSURE) “active; positive”; (Test System: AMES SALMONELLA TYPHIMURIUM, Strain/Indicator: TA1535, Metabolic Activation: RAT LIVER S-9, PHENOBARBITAL AND BETA-NAPHTHOFLAVONE (40%), Method: GAS EXPOSURE) “active; positive”; (Test System: AMES SALMONELLA TYPHIMURIUM, Strain/Indicator: TA1535, Metabolic Activation: RAT, LIVER, S-9, AROCLOR 1254, Method: DESICCATOR) “active; positive”; (Test System: AMES SALMONELLA TYPHIMURIUM, Strain/Indicator: TA1535, Metabolic Activation: RAT, LIVER, S-9, PHENOBARBITAL AND 5,6-BENZOFLAVONE, Method: GAS EXPOSURE) “active; positive”; (Test System: AMES SALMONELLA TYPHIMURIUM, Strain/Indicator: TA1537, Metabolic Activation: NONE, Method: GAS EXPOSURE) “inactive; negative”. Besides, the mutagenic call by setting is: (Test System: AMES SALMONELLA TYPHIMURIUM, Strain/Indicator: TA1537, Metabolic Activation: RAT LIVER S-9, PHENOBARBITAL AND BETA-NAPHTHOFLAVONE (40%), Method: GAS EXPOSURE) “inactive; negative”; (Test System: AMES SALMONELLA TYPHIMURIUM, Strain/Indicator: TA1537, Metabolic Activation: RAT, LIVER, S-9, PHENOBARBITAL AND 5,6-BENZOFLAVONE, Method: GAS EXPOSURE) “inactive; negative”; (Test System: E. COLI, Strain/Indicator: WP2 UVRA, Metabolic Activation: NONE, Method: GAS EXPOSURE) “inactive; negative”; (Test System: E. COLI, Strain/Indicator: WP2 UVRA, Metabolic Activation: RAT, LIVER, S-9, PHENOBARBITAL AND 5,6-BENZOFLAVONE, Method: GAS EXPOSURE) “inactive; negative”; (Test System: E.COLI, Strain/Indicator: WP2UVRA, Metabolic Activation: NONE, Method: GAS EXPOSURE) “inactive; negative”; (Test System: E.COLI, Strain/Indicator: WP2UVRA, Metabolic Activation: RAT LIVER S-9, PHENOBARBITAL AND BETA-NAPHTHOFLAVONE (40%), Method: GAS EXPOSURE) “inactive; negative”.
With `O=C1OC(=O)c2cc([N+](=O)[O-])ccc21`, the mutagenic call is, setting by setting: (Test System: AMES SALMONELLA TYPHIMURIUM, Strain/Indicator: TA97, Metabolic Activation: HAMSTER, LIVER, S-9, AROCLOR 1254 (10%), Method: PREINCUBATION) “inactive; negative”; (Test System: AMES SALMONELLA TYPHIMURIUM, Strain/Indicator: TA97, Metabolic Activation: NONE, Method: PREINCUBATION) “active; positive”; (Test System: AMES SALMONELLA TYPHIMURIUM, Strain/Indicator: TA97, Metabolic Activation: RAT, LIVER, S-9, AROCLOR 1254 (10%), Method: PREINCUBATION) “active; positive”; (Test System: AMES SALMONELLA TYPHIMURIUM, Strain/Indicator: TA98, Metabolic Activation: HAMSTER, LIVER, S-9, AROCLOR 1254 (10%), Method: PREINCUBATION) “active; positive”; (Test System: AMES SALMONELLA TYPHIMURIUM, Strain/Indicator: TA98, Metabolic Activation: NONE, Method: PREINCUBATION) “active; positive”; (Test System: AMES SALMONELLA TYPHIMURIUM, Strain/Indicator: TA98, Metabolic Activation: RAT, LIVER, S-9, AROCLOR 1254 (10%), Method: PREINCUBATION) “active; positive”. In addition, the mutagenic call is “inactive; negative” (Test System: AMES SALMONELLA TYPHIMURIUM, Strain/Indicator: TA100, Metabolic Activation: HAMSTER, LIVER, S-9, AROCLOR 1254 (10%), Method: PREINCUBATION); “inactive; negative” (Test System: AMES SALMONELLA TYPHIMURIUM, Strain/Indicator: TA100, Metabolic Activation: NONE, Method: PREINCUBATION); “inactive; negative” (Test System: AMES SALMONELLA TYPHIMURIUM, Strain/Indicator: TA100, Metabolic Activation: RAT, LIVER, S-9, AROCLOR 1254 (10%), Method: PREINCUBATION); “active; positive” (Test System: AMES SALMONELLA TYPHIMURIUM, Strain/Indicator: TA1535, Metabolic Activation: HAMSTER, LIVER, S-9, AROCLOR 1254 (10%), Method: PREINCUBATION); “inactive; negative” (Test System: AMES SALMONELLA TYPHIMURIUM, Strain/Indicator: TA1535, Metabolic Activation: NONE, Method: PREINCUBATION); “inactive; negative” (Test System: AMES SALMONELLA TYPHIMURIUM, Strain/Indicator: TA1535, Metabolic Activation: RAT, LIVER, S-9, AROCLOR 1254 (10%), Method: PREINCUBATION). Further, the mutagenic call reads like this: (Test System: AMES SALMONELLA TYPHIMURIUM, Strain/Indicator: TA1537, Metabolic Activation: HAMSTER, LIVER, S-9, AROCLOR 1254 (10%), Method: PREINCUBATION) “inactive; negative”; (Test System: AMES SALMONELLA TYPHIMURIUM, Strain/Indicator: TA1537, Metabolic Activation: NONE, Method: PREINCUBATION) “active; positive”; (Test System: AMES SALMONELLA TYPHIMURIUM, Strain/Indicator: TA1537, Metabolic Activation: RAT, LIVER, S-9, AROCLOR 1254 (10%), Method: PREINCUBATION) “active; positive”.
Consider `Cc1cn(CC(O)CN=[N+]=[N-])c(=O)[nH]c1=O` (stereo not drawn), for which, under setting [1], the mutagenic call was “active; positive”.
As to `COc1cc(O)c2c(O)c3c(=O)oc(C)cc3c(OC)c2c1`, the mutagenic call was “active; positive” (Test System: AMES SALMONELLA TYPHIMURIUM, Strain/Indicator: TA98, Metabolic Activation: MOUSE, LIVER, S-9, AROCLOR 1254, Method: STANDARD PLATE); “active; positive” (Test System: AMES SALMONELLA TYPHIMURIUM, Strain/Indicator: TA98, Metabolic Activation: NONE, Method: STANDARD PLATE); “active; positive” (Test System: AMES SALMONELLA TYPHIMURIUM, Strain/Indicator: TA100, Metabolic Activation: MOUSE, LIVER, S-9, AROCLOR 1254, Method: STANDARD PLATE); “active; positive” under setting [1]; “active; positive” (Test System: AMES SALMONELLA TYPHIMURIUM, Strain/Indicator: TA102, Metabolic Activation: MOUSE, LIVER, S-9, AROCLOR 1254, Method: STANDARD PLATE); “active; positive” (Test System: AMES SALMONELLA TYPHIMURIUM, Strain/Indicator: TA102, Metabolic Activation: NONE, Method: STANDARD PLATE).
